In patent US10988477B2 (Merck Patent GmbH, priority 2018, dated 2021):

Legend:
[1] = target: intracellular GCN2 (phosphorylation of the GCN2 substrate eIF2α) (Homo sapiens, UniProt Q9P2K8); assay: GCN2 cellular inhibition assay (AlphaScreen SureFire P-eIF2α Ser51, borrelidin-treated U2OS cells); type: cell-based; details: compounds of Formula II; biomarker assay, phosphorylated eIF2α Ser51 in borrelidin-treated U2OS cells
Method in brief: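 First, U2OS cells are plated and left overnight at 37 °C. Next, compounds (from 40 μM final, 4-fold steps) and 10 μM borrelidin are added for 1 h, cells lysed, and phospho-Ser51 eIF2α detected by AlphaScreen bead sandwich. Inhibition is computed versus borrelidin-only wells.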

GCN2 kinase = GCN2 kinase (Homo sapiens, UniProt Q9P2K8); assay: GCN2 enzyme inhibition assay (Transcreener ADP2 fluorescence polarization); type: biochemical; details: compounds of Formula II; 280 μM ATP, 4 nM GCN2 kinase
Sequence of GCN2 kinase (Q9P2K8 whole entry): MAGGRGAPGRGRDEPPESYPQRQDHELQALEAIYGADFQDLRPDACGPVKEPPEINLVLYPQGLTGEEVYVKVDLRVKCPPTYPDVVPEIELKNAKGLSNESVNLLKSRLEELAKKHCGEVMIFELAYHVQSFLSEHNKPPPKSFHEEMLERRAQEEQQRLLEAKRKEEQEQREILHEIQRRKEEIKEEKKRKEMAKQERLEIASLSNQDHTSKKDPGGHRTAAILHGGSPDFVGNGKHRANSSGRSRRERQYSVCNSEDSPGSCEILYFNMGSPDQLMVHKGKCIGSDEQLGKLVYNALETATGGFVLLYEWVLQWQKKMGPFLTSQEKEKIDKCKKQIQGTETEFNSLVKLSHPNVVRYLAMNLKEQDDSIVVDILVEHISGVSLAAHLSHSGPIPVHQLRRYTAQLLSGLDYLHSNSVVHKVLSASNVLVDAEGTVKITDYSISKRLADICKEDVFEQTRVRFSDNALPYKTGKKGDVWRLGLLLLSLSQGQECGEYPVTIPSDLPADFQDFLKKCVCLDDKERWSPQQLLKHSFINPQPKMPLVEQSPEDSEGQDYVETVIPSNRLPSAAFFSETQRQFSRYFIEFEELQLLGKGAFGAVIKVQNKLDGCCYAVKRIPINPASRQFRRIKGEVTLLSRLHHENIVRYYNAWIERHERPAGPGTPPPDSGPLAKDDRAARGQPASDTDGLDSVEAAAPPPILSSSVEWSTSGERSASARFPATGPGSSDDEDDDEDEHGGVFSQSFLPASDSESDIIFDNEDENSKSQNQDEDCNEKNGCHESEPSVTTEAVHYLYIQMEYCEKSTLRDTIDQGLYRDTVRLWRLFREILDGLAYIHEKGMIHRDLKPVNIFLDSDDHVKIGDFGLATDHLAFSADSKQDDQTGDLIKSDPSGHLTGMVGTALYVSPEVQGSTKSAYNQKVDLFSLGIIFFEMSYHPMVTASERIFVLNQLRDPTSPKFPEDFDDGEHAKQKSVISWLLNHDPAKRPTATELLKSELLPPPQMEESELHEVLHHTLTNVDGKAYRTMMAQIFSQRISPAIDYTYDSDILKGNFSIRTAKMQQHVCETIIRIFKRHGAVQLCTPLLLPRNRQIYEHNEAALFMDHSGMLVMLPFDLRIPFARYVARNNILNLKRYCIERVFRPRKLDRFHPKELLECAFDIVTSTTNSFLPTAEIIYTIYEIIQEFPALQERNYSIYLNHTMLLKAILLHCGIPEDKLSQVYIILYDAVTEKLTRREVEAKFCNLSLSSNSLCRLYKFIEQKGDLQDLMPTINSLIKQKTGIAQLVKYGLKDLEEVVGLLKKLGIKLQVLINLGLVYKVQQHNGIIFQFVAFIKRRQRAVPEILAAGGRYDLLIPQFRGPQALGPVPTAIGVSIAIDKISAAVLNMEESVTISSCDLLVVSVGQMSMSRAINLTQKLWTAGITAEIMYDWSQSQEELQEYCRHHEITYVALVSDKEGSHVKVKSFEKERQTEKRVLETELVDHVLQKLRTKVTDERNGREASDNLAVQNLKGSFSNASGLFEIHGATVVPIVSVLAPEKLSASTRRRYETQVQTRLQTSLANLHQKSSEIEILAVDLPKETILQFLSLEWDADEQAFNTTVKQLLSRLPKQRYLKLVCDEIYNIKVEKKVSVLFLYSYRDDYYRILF
Method in brief: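 Inhibition of 4 nM GCN2 was measured with compound up to 8 μM final, ATP 280 μM and (RS)7 peptide 200 μM over a 1 h, 25 °C reaction. ADP FP readout; IC50 and Ki(app) calculated from percent inhibition.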

Sequence of intracellular GCN2 (phosphorylation of the GCN2 substrate eIF2α) (Q9P2K8 whole entry): as above

IC50 [1] | Ki (GCN2 kinase) | Structure (SMILES)
< 500 nM | < 10 nM | CS(=O)(=O)NCC1CN(c2cc(-c3cnc4ccc(C(F)F)nn34)ncn2)CC(C2CC2)O1 (stereo not shown) [II-443, N-((6-Cyclopropyl-4-(6-(6-(difluoromethyl)imidazo[1,2-b]pyridazin-3-yl)pyrimidin-4-yl)morpholin-2-yl)methyl)methanesulfonamide]
< 500 nM | < 10 nM | CS(=O)(=O)NCC1CN(c2cc(-c3cnc4ccc(C(F)F)nn34)ncn2)CC(C2CC2)O1 (stereo not shown) [II-444, N-((6-Cyclopropyl-4-(6-(6-(difluoromethyl)imidazo[1,2-b]pyridazin-3-yl)pyrimidin-4-yl)morpholin-2-yl)methyl)methanesulfonamide]
> 5000 nM | 10 to 1000 nM | CC1(NS(C)(=O)=O)CCCN(c2cc(-c3cnc4ccc(C(F)F)nn34)ncn2)C1 (stereo not shown) [II-445, N-(1-(6-(6-(Difluoromethyl)imidazo[1,2-b]pyridazin-3-yl)pyrimidin-4-yl)-3-methylpiperidin-3-yl)methanesulfonamide]
> 5000 nM | 10 to 1000 nM | CC1(NS(C)(=O)=O)CCCN(c2cc(-c3cnc4ccc(C(F)F)nn34)ncn2)C1 (stereo not shown) [II-446, N-(1-(6-(6-(Difluoromethyl)imidazo[1,2-b]pyridazin-3-yl)pyrimidin-4-yl)-3-methylpiperidin-3-yl)methanesulfonamide]
500 to 5000 nM | 10 to 1000 nM | CS(=O)(=O)NCC12CC1CN(c1cc(-c3cnc4ccc(C(F)F)nn34)ncn1)C2 (stereo not shown) [II-447, N-((3-(6-(6-(Difluoromethyl)imidazo[1,2-b]pyridazin-3-yl)pyrimidin-4-yl)-3-azabicyclo[3.1.0]hexan-1-yl)methyl)methanesulfonamide]
< 500 nM | < 10 nM | CC1C(CNS(C)(=O)=O)N(C)C(C)CN1c1cc(-c2cnc3ccc(C(F)F)nn23)ncn1 (stereo not shown) [II-448, N-((4-(6-(6-(Difluoromethyl)imidazo[1,2-b]pyridazin-3-yl)pyrimidin-4-yl)-1,3,6-trimethylpiperazin-2-yl)methyl)methanesulfonamide]
< 500 nM | < 10 nM | C[C@@H]1C[C@H](NS(C)(=O)=O)CN(c2cc(-c3cnc4ccc(C(F)F)nn34)ncn2)C1 [II-449, N-((3S,5R)-1-(6-(6-(Difluoromethyl)imidazo[1,2-b]pyridazin-3-yl)pyrimidin-4-yl)-5-methylpiperidin-3-yl)methanesulfonamide]
500 to 5000 nM | 10 to 1000 nM | CS(=O)(=O)NCC1CN(c2cc(-c3cnc4ccc(C(F)F)nn34)ncn2)CCN1 (stereo not shown) [II-450, N-((4-(6-(6-(Difluoromethyl)imidazo[1,2-b]pyridazin-3-yl)pyrimidin-4-yl)piperazin-2-yl)methyl)methanesulfonamide]
500 to 5000 nM | 10 to 1000 nM | FC(F)c1ccc2ncc(-c3cc(N4CC5CC(C4)O5)ncn3)n2n1 [II-451, 3-(6-(6-(Difluoromethyl)imidazo[1,2-b]pyridazin-3-yl)pyrimidin-4-yl)-6-oxa-3-azabicyclo[3.1.1]heptane]
500 to 5000 nM | 10 to 1000 nM | CN1CCN(c2cc(-c3cnc4ccc(C(F)F)nn34)ncn2)CC12CN(S(C)(=O)=O)C2 [II-452, 8-(6-(6-(Difluoromethyl)imidazo[1,2-b]pyridazin-3-yl)pyrimidin-4-yl)-5-methyl-2-(methylsulfonyl)-2,5,8-triazaspiro[3.5]nonane]
> 5000 nM | 10 to 1000 nM | CN1CCN(c2cc(-c3cnc4ccc(C(F)F)nn34)ncn2)CC1C(N)=O (stereo not shown) [II-453, 4-(6-(6-(Difluoromethyl)imidazo[1,2-b]pyridazin-3-yl)pyrimidin-4-yl)-1-methylpiperazine-2-carboxamide]
> 5000 nM | 10 to 1000 nM | OC1([C@@H]2CN(c3cc(-c4cnc5ccc(C(F)F)nn45)ncn3)CCN2)CC1 [II-454, (S)-1-(4-(6-(6-(Difluoromethyl)imidazo[1,2-b]pyridazin-3-yl)pyrimidin-4-yl)piperazin-2-yl)cyclopropan-1-ol]
500 to 5000 nM | 10 to 1000 nM | CN(C1CCCN(c2cc(-c3cnc4ccc(C(F)F)nn34)ncn2)C1)S(C)(=O)=O (stereo not shown) [II-455, N-(1-(6-(6-(Difluoromethyl)imidazo[1,2-b]pyridazin-3-yl)pyrimidin-4-yl)piperidin-3-yl)-N-methylmethanesulfonamide]
< 500 nM | 10 to 1000 nM | CN(C)CC(=O)N(CC1CCCN(c2cc(-c3cnc4ccc(C(F)F)nn34)ncn2)C1)S(C)(=O)=O (stereo not shown) [II-456, N-((1-(6-(6-(Difluoromethyl)imidazo[1,2-b]pyridazin-3-yl)pyrimidin-4-yl)piperidin-3-yl)methyl)-2-(dimethylamino)-N-(methylsulfonyl)acetamide]
500 to 5000 nM | 10 to 1000 nM | CC1(C)COC(CNS(C)(=O)=O)CN1c1cc(-c2cnc3ccc(C(F)F)nn23)ncn1 (stereo not shown) [II-457, N-((4-(6-(6-(Difluoromethyl)imidazo[1,2-b]pyridazin-3-yl)pyrimidin-4-yl)-5,5-dimethylmorpholin-2-yl)methyl)methanesulfonamide]
> 5000 nM | > 1000 nM | CN1CCN(c2cc(-c3cnc4ccc(C(F)F)nn34)ncn2)C[C@H]1C1(O)CC1 [II-459, (S)-1-(4-(6-(6-(Difluoromethyl)imidazo[1,2-b]pyridazin-3-yl)pyrimidin-4-yl)-1-methylpiperazin-2-yl)cyclopropan-1-ol]
> 5000 nM | 10 to 1000 nM | CS(=O)(=O)NC(=O)C1CCCN(c2cc(-c3cnc4ccc(C(F)F)nn34)ncn2)C1 (stereo not shown) [II-460, 1-(6-(6-(Difluoromethyl)imidazo[1,2-b]pyridazin-3-yl)pyrimidin-4-yl)-N-(methylsulfonyl)piperidine-3-carboxamide]
500 to 5000 nM | < 10 nM | CC1C(CNS(C)(=O)=O)C(F)(F)C(C)CN1c1cc(-c2cnc3ccc(C(F)F)nn23)ncn1 (stereo not shown) [II-461, N-((1-(6-(6-(Difluoromethyl)imidazo[1,2-b]pyridazin-3-yl)pyrimidin-4-yl)-4,4-difluoro-2,5-dimethylpiperidin-3-yl)methyl)methanesulfonamide]
< 500 nM | < 10 nM | CC1C(CNS(C)(=O)=O)C(F)(F)C(C)CN1c1cc(-c2cnc3ccc(C(F)F)nn23)ncn1 (stereo not shown) [II-462, N-((1-(6-(6-(Difluoromethyl)imidazo[1,2-b]pyridazin-3-yl)pyrimidin-4-yl)-4,4-difluoro-2,5-dimethylpiperidin-3-yl)methyl)methanesulfonamide]
< 500 nM | < 10 nM | CC1C(CNS(C)(=O)=O)N(C2CC2)CCN1c1cc(-c2cnc3ccc(C(F)F)nn23)ncn1 (stereo not shown) [II-463, N-((1-Cyclopropyl-4-(6-(6-(difluoromethyl)imidazo[1,2-b]pyridazin-3-yl)pyrimidin-4-yl)-3-methylpiperazin-2-yl)methyl)methanesulfonamide]
500 to 5000 nM | 10 to 1000 nM | CC(NS(C)(=O)=O)C1CN(c2cc(-c3cnc4ccc(C(F)F)nn34)ncn2)CCN1 (stereo not shown) [II-465, N-(1-(4-(6-(6-(Difluoromethyl)imidazo[1,2-b]pyridazin-3-yl)pyrimidin-4-yl)piperazin-2-yl)ethyl)methanesulfonamide]
< 500 nM | < 10 nM | CC1C(CNS(C)(=O)=O)NCCN1c1cc(-c2cnc3ccc(C(F)(F)F)nn23)ncn1 (stereo not shown) [II-466, N-((3-Methyl-4-(6-(6-(trifluoromethyl)imidazo[1,2-b]pyridazin-3-yl)pyrimidin-4-yl)piperazin-2-yl)methyl)methanesulfonamide]
> 5000 nM | 10 to 1000 nM | CC(NS(C)(=O)=O)C1CN(c2cc(-c3cnc4ccc(C(F)F)nn34)ncn2)CCN1C (stereo not shown) [II-473, N-(1-(4-(6-(6-(Difluoromethyl)imidazo[1,2-b]pyridazin-3-yl)pyrimidin-4-yl)-1-methylpiperazin-2-yl)ethyl)methanesulfonamide]
500 to 5000 nM | 10 to 1000 nM | CC(NS(C)(=O)=O)C1CN(c2cc(-c3cnc4ccc(C(F)F)nn34)ncn2)CCN1C (stereo not shown) [II-474, N-(1-(4-(6-(6-(Difluoromethyl)imidazo[1,2-b]pyridazin-3-yl)pyrimidin-4-yl)-1-methylpiperazin-2-yl)ethyl)methanesulfonamide]
< 500 nM | 10 to 1000 nM | CC1C(CNS(C)(=O)=O)C(F)(F)C(C)CN1c1cc(-c2cnc3ccc(C(F)F)nn23)ncn1 (stereo not shown) [II-475, N-((1-(6-(6-(Difluoromethyl)imidazo[1,2-b]pyridazin-3-yl)pyrimidin-4-yl)-4,4-difluoro-2,5-dimethylpiperidin-3-yl)methyl)methanesulfonamide]
500 to 5000 nM | 10 to 1000 nM | CC1C(CNS(C)(=O)=O)C(F)(F)C(C)CN1c1cc(-c2cnc3ccc(C(F)F)nn23)ncn1 (stereo not shown) [II-476, N-((1-(6-(6-(Difluoromethyl)imidazo[1,2-b]pyridazin-3-yl)pyrimidin-4-yl)-4,4-difluoro-2,5-dimethylpiperidin-3-yl)methyl)methanesulfonamide]
500 to 5000 nM | 10 to 1000 nM | CC1C(C(N)=O)NCCN1c1cc(-c2cnc3ccc(C(F)F)nn23)ncn1 (stereo not shown) [II-477, 4-(6-(6-(Difluoromethyl)imidazo[1,2-b]pyridazin-3-yl)pyrimidin-4-yl)-3-methylpiperazine-2-carboxamide]
> 5000 nM | 10 to 1000 nM | CNS(=O)(=O)C1CCCN(c2cc(-c3cnc4ccc(C(F)F)nn34)ncn2)C1 (stereo not shown) [II-480, 1-(6-(6-(Difluoromethyl)imidazo[1,2-b]pyridazin-3-yl)pyrimidin-4-yl)-N-methylpiperidine-3-sulfonamide]
500 to 5000 nM | 10 to 1000 nM | CS(=O)(=O)NCC1COCCN(c2cc(-c3cnc4ccc(C(F)F)nn34)ncn2)C1 (stereo not shown) [II-481, N-((4-(6-(6-(Difluoromethyl)imidazo[1,2-b]pyridazin-3-yl)pyrimidin-4-yl)-1,4-oxazepan-6-yl)methyl)methanesulfonamide]
